# Columns and labels:
# Type in all cases: in vivo
# [1] = test system: johnsongrass (Sorghum halepense); test: Test C pre-/postemergence: johnsongrass
# Procedure, shortened: (§1)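 Preemergence on seeds in loam/sand, postemergence on 2–18 cm (1–4-leaf) plants in peat-based medium; compounds in non-phytotoxic solvent with surfactant. After 13–15 days in greenhouse, visual rating versus controls, 0 (no effect) to 100 (complete control).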
# [2] = test system: lambsquarters (Chenopodium album); test: Test C pre-/postemergence: lambsquarters
# Procedure, shortened: as §1
# corn (Zea mays) = test: Test A pre-/postemergence: corn; details: for Corn plant response rating: Postemergence; for Plant response rating, Corn: Preemergence
# Procedure, shortened: (§2)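 Injury was scored visually on a 0 (no effect) to 100 (complete control) scale versus untreated controls roughly ten days after treatment in the greenhouse. Compounds, formulated in surfactant-containing non-phytotoxic solvent, went on as soil-directed preemergence spray or postemergence to one- to two-leaf plants 2–10 cm tall.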
# [3] = test system: galium (catchweed bedstraw, Galium aparine); test: Test C pre-/postemergence: galium
# Procedure, shortened: as §1
# kochia (Kochia scoparia) = test: Test C pre-/postemergence: kochia
# Procedure, shortened: as §1
# rice (Oryza sativa) = test: Test B flooded paddy: rice; details: Flood; 250 g ai/ha; applied to paddy water at 2-leaf stage; visually evaluated after 13 to 15 days
# Procedure, shortened: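 Plants were grown to the 2-leaf stage, then pots were flooded to 3 cm above the soil and compounds were applied directly into the paddy water. Water depth was held for the whole test; after 13 to 15 days in a greenhouse, injury was visually rated against untreated controls (0 = no effect, 100 = complete control).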
# [4] = test system: barnyardgrass (Echinochloa crus-galli); test: Test A pre-/postemergence: barnyardgrass; details: for Barnyardgrass plant response rating: Postemergence; for Plant response rating, Barnyardgrass: Preemergence
# Procedure, shortened: as §2
# [5] = test system: velvetleaf (Abutilon theophrasti); test: Test C pre-/postemergence: velvetleaf
# Procedure, shortened: as §1
# [6] = test system: ragweed (common ragweed, Ambrosia elation); test: Test C pre-/postemergence: ragweed
# Procedure, shortened: as §1
# [7] = test system: morningglory (Ipomoea spp.); test: Test A pre-/postemergence: morningglory; details: for Morningglory plant response rating: visual rating on 0 to 100 scale (0 no effect, 100 complete control), approximately ten days
# Procedure, shortened: as §2
# [8] = Postemergence, 31 g ai/ha, scale 0 to 100 (0 no effect, 100 complete control)
# [9] = Postemergence, 62 g ai/ha, scale 0 to 100 (0 no effect, 100 complete control)
# [10] = Postemergence, 125 g ai/ha, scale 0 to 100, 0 no effect, 100 complete control
# [11] = Postemergence, 250 g ai/ha, scale 0 to 100
# [12] = Preemergence, 31 g ai/ha, scale of 0 to 100, 0 is no effect, 100 is complete control
# [13] = Preemergence, 62 g ai/ha, scale of 0 to 100, 0 is no effect, 100 is complete control
# [14] = Preemergence, 125 g ai/ha, scale 0 to 100, 0 no effect, 100 complete control
# [15] = Preemergence, 250 g ai/ha, scale 0 to 100, 0 no effect, 100 complete control
# [16] = 125 g ai/ha, 0 to 100 scale, 0 is no effect, 100 is complete control
# [17] = 500 g ai/ha, visual rating on 0 to 100 scale (0 no effect, 100 complete control), approximately ten days
# [18] = 125 g ai/ha, 0 to 100 scale where 0 is no effect and 100 is complete control
# [19] = 500 g ai/ha, 0 to 100 scale (0 no effect, 100 complete control)
# [20] = Postemergence, 125 g ai/ha, 0 to 100 scale, 0 is no effect, 100 is complete control
# [21] = Preemergence, 125 g ai/ha, 0 to 100 scale where 0 is no effect and 100 is complete control
# [22] = Preemergence, 500 g ai/ha, 0 to 100 scale (0 no effect, 100 complete control)
smiles,measurement,setting,value
COc1nn(-c2ccc(C(F)(F)F)cc2)nc1Cc1ccnc(C(F)F)c1 [Compound 138],"Plant response rating, Johnsongrass",[1]; [8],45
same,"Plant response rating, Johnsongrass",[1]; [9],45
same,"Plant response rating, Johnsongrass",[1]; [10],45
same,"Plant response rating, Johnsongrass",[1]; [11],95
same,"Plant response rating, Johnsongrass",[1]; [12],45
same,"Plant response rating, Johnsongrass",[1]; [13],85
same,"Plant response rating, Johnsongrass",[1]; [14],98
same,"Plant response rating, Johnsongrass",[1]; [15],100
same,"Plant response rating, Lambsquarters",[2]; [8],100
same,"Plant response rating, Lambsquarters",[2]; [9],100
same,"Plant response rating, Lambsquarters",[2]; [10],100
same,"Plant response rating, Lambsquarters",[2]; [11],100
same,"Plant response rating, Lambsquarters",[2]; [12],95
same,"Plant response rating, Lambsquarters",[2]; [13],98
same,"Plant response rating, Lambsquarters",[2]; [14],98
same,"Plant response rating, Lambsquarters",[2]; [15],98
same,Corn plant response rating,corn (Zea mays); [16],50
same,Corn plant response rating,corn (Zea mays); [17],70
same,"Plant response rating, Corn",corn (Zea mays); [18],30
same,"Plant response rating, Corn",corn (Zea mays); [19],60
same,"Plant response rating, Galium",[3]; [8],85
same,"Plant response rating, Galium",[3]; [9],90
same,"Plant response rating, Galium",[3]; [11],90
same,"Plant response rating, Galium",[3]; [12],95
same,"Plant response rating, Galium",[3]; [13],100
same,"Plant response rating, Galium",[3]; [14],100
same,"Plant response rating, Galium",[3]; [15],100
same,"Plant response rating, Kochia",kochia (Kochia scoparia); [8],95
same,"Plant response rating, Kochia",kochia (Kochia scoparia); [9],95
same,"Plant response rating, Kochia",kochia (Kochia scoparia); [10],98
same,"Plant response rating, Kochia",kochia (Kochia scoparia); [11],98
same,"Plant response rating, Kochia",kochia (Kochia scoparia); [12],55
same,"Plant response rating, Kochia",kochia (Kochia scoparia); [13],65
same,"Plant response rating, Kochia",kochia (Kochia scoparia); [14],85
same,"Plant response rating, Kochia",kochia (Kochia scoparia); [15],90
same,"Plant response rating, Rice (0 to 100 scale, 0 is no effect, 100 is complete control)",rice (Oryza sativa),50
same,Barnyardgrass plant response rating,[4]; [16],90
same,Barnyardgrass plant response rating,[4]; [17],90
same,"Plant response rating, Barnyardgrass",[4]; [18],90
same,"Plant response rating, Barnyardgrass",[4]; [19],100
same,"Plant response rating, Velvetleaf",[5]; [8],50
same,"Plant response rating, Velvetleaf",[5]; [9],75
same,"Plant response rating, Velvetleaf",[5]; [10],80
same,"Plant response rating, Velvetleaf",[5]; [11],90
same,"Plant response rating, Velvetleaf",[5]; [12],5
same,"Plant response rating, Velvetleaf",[5]; [14],55
same,"Plant response rating, Velvetleaf",[5]; [15],98
same,"Plant response rating, Ragweed",[6]; [8],75
same,"Plant response rating, Ragweed",[6]; [9],80
same,"Plant response rating, Ragweed",[6]; [10],85
same,"Plant response rating, Ragweed",[6]; [11],85
same,"Plant response rating, Ragweed",[6]; [12],40
same,"Plant response rating, Ragweed",[6]; [13],45
same,"Plant response rating, Ragweed",[6]; [14],50
same,"Plant response rating, Ragweed",[6]; [15],50
same,"Plant response rating, Morningglory",[7]; [20],100
same,Morningglory plant response rating,"[7]; Postemergence, 500 g ai/ha",100
same,"Plant response rating, Morningglory",[7]; [21],70
same,"Plant response rating, Morningglory",[7]; [22],90
COc1nn(-c2cccc(F)c2)nc1Cc1ccnc(C(F)(F)F)c1 [Compound 139],"Plant response rating, Johnsongrass",[1]; [8],30
same,"Plant response rating, Johnsongrass",[1]; [9],50
same,"Plant response rating, Johnsongrass",[1]; [10],80
same,"Plant response rating, Johnsongrass",[1]; [11],80
same,"Plant response rating, Johnsongrass",[1]; [12],15
same,"Plant response rating, Johnsongrass",[1]; [13],45
same,"Plant response rating, Johnsongrass",[1]; [14],100
same,"Plant response rating, Johnsongrass",[1]; [15],100
same,"Plant response rating, Lambsquarters",[2]; [8],90
same,"Plant response rating, Lambsquarters",[2]; [9],95
same,"Plant response rating, Lambsquarters",[2]; [10],95
same,"Plant response rating, Lambsquarters",[2]; [11],98
same,"Plant response rating, Lambsquarters",[2]; [12],60
same,"Plant response rating, Lambsquarters",[2]; [13],70
same,"Plant response rating, Lambsquarters",[2]; [14],85
same,"Plant response rating, Lambsquarters",[2]; [15],90
same,Corn plant response rating,corn (Zea mays); [16],30
same,Corn plant response rating,corn (Zea mays); [17],50
same,"Plant response rating, Corn",corn (Zea mays); [18],10
same,"Plant response rating, Corn",corn (Zea mays); [19],30
same,"Plant response rating, Galium",[3]; [8],60
same,"Plant response rating, Galium",[3]; [9],70
same,"Plant response rating, Galium",[3]; [10],80
same,"Plant response rating, Galium",[3]; [11],80
same,"Plant response rating, Galium",[3]; [12],5
same,"Plant response rating, Galium",[3]; [13],80
same,"Plant response rating, Galium",[3]; [14],85
same,"Plant response rating, Galium",[3]; [15],95
same,"Plant response rating, Kochia",kochia (Kochia scoparia); [8],85
same,"Plant response rating, Kochia",kochia (Kochia scoparia); [9],85
same,"Plant response rating, Kochia",kochia (Kochia scoparia); [10],90
same,"Plant response rating, Kochia",kochia (Kochia scoparia); [11],90
same,"Plant response rating, Kochia",kochia (Kochia scoparia); [12],65
same,"Plant response rating, Kochia",kochia (Kochia scoparia); [13],75
same,"Plant response rating, Kochia",kochia (Kochia scoparia); [14],90
same,"Plant response rating, Kochia",kochia (Kochia scoparia); [15],100
same,"Plant response rating, Rice (0 to 100 scale, 0 is no effect, 100 is complete control)",rice (Oryza sativa),45
same,Barnyardgrass plant response rating,[4]; [16],90
same,Barnyardgrass plant response rating,[4]; [17],100
same,"Plant response rating, Barnyardgrass",[4]; [18],80
same,"Plant response rating, Barnyardgrass",[4]; [19],100
same,"Plant response rating, Velvetleaf",[5]; [8],20
same,"Plant response rating, Velvetleaf",[5]; [9],35
same,"Plant response rating, Velvetleaf",[5]; [10],70
same,"Plant response rating, Velvetleaf",[5]; [11],75
same,"Plant response rating, Velvetleaf",[5]; [12],0
same,"Plant response rating, Velvetleaf",[5]; [13],10
same,"Plant response rating, Velvetleaf",[5]; [14],40
same,"Plant response rating, Velvetleaf",[5]; [15],40
same,"Plant response rating, Ragweed",[6]; [9],40
same,"Plant response rating, Ragweed",[6]; [10],45
same,"Plant response rating, Ragweed",[6]; [11],75
same,"Plant response rating, Ragweed",[6]; [12],0
same,"Plant response rating, Ragweed",[6]; [13],0
same,"Plant response rating, Ragweed",[6]; [14],30
same,"Plant response rating, Ragweed",[6]; [15],55
same,"Plant response rating, Morningglory",[7]; [20],80
same,Morningglory plant response rating,"[7]; Postemergence, 500 g ai/ha",100
same,"Plant response rating, Morningglory",[7]; [21],50
same,"Plant response rating, Morningglory",[7]; [22],70

# — patent publication US9302999B2, “Substituted triazoles as herbicides” (E. I. DU PONT DE NEMOURS AND COMPANY, priority 2012, dated 2016)
